One experiment concerns the target human ADAMTS-5 (Homo sapiens (Human), UniProt Q9UNA0). The note with it: read-out: hADAMTS-5 potency IC50.
The next experiment addresses human TACE (Homo sapiens (Human), UniProt P78536). The note with it: read-out: TACE potency IC50.

Chain of human TACE (P78536 whole entry, looked up, change not shown): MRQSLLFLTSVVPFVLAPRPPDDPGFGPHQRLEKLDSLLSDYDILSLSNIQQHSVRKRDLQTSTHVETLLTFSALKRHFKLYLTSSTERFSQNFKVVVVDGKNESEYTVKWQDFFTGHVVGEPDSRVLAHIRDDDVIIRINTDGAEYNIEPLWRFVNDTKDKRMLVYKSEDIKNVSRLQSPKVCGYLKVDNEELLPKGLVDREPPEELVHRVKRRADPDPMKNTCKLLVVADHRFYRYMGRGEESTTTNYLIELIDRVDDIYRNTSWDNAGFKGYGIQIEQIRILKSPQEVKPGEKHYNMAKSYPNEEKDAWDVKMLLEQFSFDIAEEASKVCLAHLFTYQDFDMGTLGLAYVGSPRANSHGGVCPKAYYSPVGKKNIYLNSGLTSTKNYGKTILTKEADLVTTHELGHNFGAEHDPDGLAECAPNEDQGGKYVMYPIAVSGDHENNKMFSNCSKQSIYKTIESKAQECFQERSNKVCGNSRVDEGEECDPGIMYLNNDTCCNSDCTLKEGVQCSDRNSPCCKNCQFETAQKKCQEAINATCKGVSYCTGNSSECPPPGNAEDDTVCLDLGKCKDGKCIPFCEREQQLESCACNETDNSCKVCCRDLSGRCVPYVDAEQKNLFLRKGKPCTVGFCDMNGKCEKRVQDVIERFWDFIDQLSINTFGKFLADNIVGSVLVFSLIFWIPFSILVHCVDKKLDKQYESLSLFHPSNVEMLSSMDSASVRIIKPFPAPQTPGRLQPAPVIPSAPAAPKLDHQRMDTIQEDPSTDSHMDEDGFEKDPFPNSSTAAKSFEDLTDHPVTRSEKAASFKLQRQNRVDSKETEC
Chain of human ADAMTS-5 (Q9UNA0 262-930): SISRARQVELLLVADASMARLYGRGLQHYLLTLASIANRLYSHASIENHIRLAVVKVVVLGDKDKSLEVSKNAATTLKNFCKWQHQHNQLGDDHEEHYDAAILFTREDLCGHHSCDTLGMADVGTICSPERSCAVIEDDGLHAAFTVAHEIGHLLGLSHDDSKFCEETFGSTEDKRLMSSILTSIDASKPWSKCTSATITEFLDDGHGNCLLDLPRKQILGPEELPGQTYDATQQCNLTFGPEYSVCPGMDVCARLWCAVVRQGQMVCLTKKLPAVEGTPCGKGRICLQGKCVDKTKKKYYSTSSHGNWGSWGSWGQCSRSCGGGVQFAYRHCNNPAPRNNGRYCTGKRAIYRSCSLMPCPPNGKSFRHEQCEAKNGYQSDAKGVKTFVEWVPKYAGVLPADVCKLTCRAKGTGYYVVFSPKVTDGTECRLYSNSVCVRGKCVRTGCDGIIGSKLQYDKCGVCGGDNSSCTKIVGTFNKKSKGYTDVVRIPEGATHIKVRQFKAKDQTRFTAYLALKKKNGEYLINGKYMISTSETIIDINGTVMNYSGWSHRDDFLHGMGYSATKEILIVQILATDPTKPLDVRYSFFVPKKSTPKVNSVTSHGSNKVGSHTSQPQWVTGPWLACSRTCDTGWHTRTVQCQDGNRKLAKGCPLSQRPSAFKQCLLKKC
Method for human ADAMTS-5: Finally, the fluorescence is read on the Envision (Perkin Elmer) after an incubation of 90 min at 37° C.

What is called IC50 is the point on the concentration scale where inhibition reaches its midpoint. For `Cc1ccc(C2(CCC(=O)N3CCN(c4cc(F)cc(F)c4)[C@@H](C)C3)NC(=O)NC2=O)cn1` (stereo partly drawn) [compound 386, 5-[3-[(3S)-4-(3,5-difluorophenyl)-3-methyl-piperazin-1-yl]-3-oxo-propyl]-5-(6-methyl-3-pyridyl)imidazolidine-2,4-dione], the results for the IC50 on human ADAMTS-5 and on human TACE were 0.048 µM and over 4 µM, respectively.
With `CC(CC1(C2CNC2)NC(=O)NC1=O)C(=O)N1CCN(c2ccc(F)c(F)c2)CC1` (stereo not drawn) [compound 240, 5-(azetidin-3-yl)-5-[3-[4-(3,4-difluorophenyl)piperazin-1-yl]-2-methyl-3-oxo-propyl]imidazolidine-2,4-dione], the figures for the IC50 at human ADAMTS-5 and at human TACE were 0.194 µM and over 20 µM, respectively.
`Cc1ncccc1-c1cccc(N2CCN(C(=O)CCC3(C4CC4)NC(=O)NC3=O)C[C@@H]2C)c1` (stereo partly drawn) [compound 323, 5-cyclopropyl-5-[3-[(3S)-3-methyl-4-[3-(2-methyl-3-pyridyl)phenyl]piperazin-1-yl]-3-oxo-propyl]imidazolidine-2,4-dione]: the figures for the IC50 at human ADAMTS-5 and at human TACE were 1.24 µM and over 4 µM, respectively.
In the same order, the values of `C[C@H]1CN(C(=O)CCC2(C3CC3)NC(=O)NC2=O)CCN1c1cnnc(Cl)c1` (stereo partly drawn) [compound 373, 5-[3-[(3S)-4-(6-chloropyridazin-4-yl)-3-methyl-piperazin-1-yl]-3-oxo-propyl]-5-cyclopropyl-imidazolidine-2,4-dione] are 1.53 µM and over 20 µM.
In the same order, the values of `CC(CC1(c2ccccn2)NC(=O)NC1=O)C(=O)N1CCN(c2cccc(Cl)c2)[C@@H](C)C1` (stereo partly drawn) [compound 269, 5-[3-[(3S)-4-(3-chlorophenyl)-3-methyl-piperazin-1-yl]-2-methyl-3-oxo-propyl]-5-(2-pyridyl)imidazolidine-2,4-dione] are 0.019 µM and 0.84 µM.
Taken in the same sequence, the figures for `CC(CC1(CN2CCC(F)(F)C2)NC(=O)NC1=O)C(=O)N1CCN(c2cc(Cl)cc(Cl)c2)CC1` (stereo not drawn) [compound 252, 5-[3-[4-(3,5-dichlorophenyl)piperazin-1-yl]-2-methyl-3-oxo-propyl]-5-[(3,3-difluoropyrrolidin-1-yl)methyl]imidazolidine-2,4-dione] were 0.067 µM and 2.69 µM.
As for `CC(CC1(CCN)NC(=O)NC1=O)C(=O)N1CCN(c2ccc(F)c(F)c2)CC1` (stereo not drawn) [Cpd 241, 5-(2-aminoethyl)-5-[3-[4-(3,4-difluorophenyl)piperazin-1-yl]-2-methyl-3-oxo-propyl]imidazolidine-2,4-dione], the IC50 is 0.232 µM at human ADAMTS-5 and over 12 µM at human TACE.
Taken in the same sequence, the figures for `Cc1cc(CC(CC2(C)NC(=O)NC2=O)C(=O)N2CCN(c3cc(Cl)cc(Cl)c3)CC2)n(C)n1` (stereo not drawn) [compound 238, 5-[3-[4-(3,5-dichlorophenyl)piperazin-1-yl]-2-[(2,5-dimethylpyrazol-3-yl)methyl]-3-oxo-propyl]-5-methyl-imidazolidine-2,4-dione] were 0.141 µM and 3.16 µM.
In the same order, the values of `C[C@H]1CN(C(=O)CCC2(C3CC3)NC(=O)NC2=O)CCN1c1ccc2[nH]ccc2c1` (stereo partly drawn) [compound 274, 5-cyclopropyl-5-[3-[(3S)-4-(1H-indol-5-yl)-3-methyl-piperazin-1-yl]-3-oxo-propyl]imidazolidine-2,4-dione] are over 4 µM and over 20 µM.
For the compound `C[C@H]1CN(C(=O)CCC2(C3CC3)NC(=O)NC2=O)CCN1c1cccc(-c2cnccn2)c1` (stereo partly drawn) [Cpd 372, S-Cyclopropyl-5-{3-[(S)-3-methyl-4-(3-pyrazin-2-yl-phenyl)-piperazin-1-yl]-3-oxo-propyl}-imidazolidine-2,4-dione], the figures for the concentration for half-maximal inhibition (IC50) on human ADAMTS-5 and at human TACE were 2.39 µM and over 20 µM, respectively.
Taken in the same sequence, the figures for `Cc1nc(N2CCN(C(=O)CCC3(C4CC4)NC(=O)NC3=O)C[C@@H]2C)no1` (stereo partly drawn) [compound 344, 5-cyclopropyl-5-[3-[(3S)-3-methyl-4-(5-methyl-1,2,4-oxadiazol-3-yl)piperazin-1-yl]-3-oxo-propyl]imidazolidine-2,4-dione] were over 20 µM and over 20 µM.
Regarding `C[C@@H](C[C@@]1(C2CC2)NC(=O)NC1=O)C(=O)N1CCN(c2ccc(F)c(-c3cn[nH]c3)c2)[C@@H](C)C1` [compound 378, 5-cyclopropyl-5-[3-[(3S)-4-[4-fluoro-3-(1H-pyrazol-4-yl)phenyl]-3-methyl-piperazin-1-yl]-2-methyl-3-oxo-propyl]imidazolidine-2,4-dione], the IC50 at human ADAMTS-5 is 0.022 µM; at human TACE, over 4 µM.
In the same order, the values of `C[C@H]1CN(C(=O)CCC2(c3ccccn3)NC(=O)NC2=O)CCN1c1ccc(Cl)c(Cl)c1` (stereo partly drawn) [compound 347, 5-[3-[(3S)-4-(3,4-dichlorophenyl)-3-methyl-piperazin-1-yl]-3-oxo-propyl]-5-(2-pyridyl)imidazolidine-2,4-dione] are 0.021 µM and 2.38 µM.
Taken in the same sequence, the figures for `COCC(CC1(C)NC(=O)NC1=O)C(=O)N1CCN(c2cccc(F)c2)[C@@H](C)C1` (stereo partly drawn) [compound 292, 5-[3-[(3S)-4-(3-fluorophenyl)-3-methyl-piperazin-1-yl]-2-(methoxymethyl)-3-oxo-propyl]-5-methyl-imidazolidine-2,4-dione] were 0.048 µM and over 4 µM.
In the same order, the values of `C[C@H]1CN(C(=O)CCC2(c3cccnc3)NC(=O)NC2=O)CCN1c1cc(Cl)cc(Cl)c1` (stereo partly drawn) [compound 318, 5-[3-[(3S)-4-(3,5-dichlorophenyl)-3-methyl-piperazin-1-yl]-3-oxo-propyl]-5-(3-pyridyl)imidazolidine-2,4-dione] are 0.059 µM and 2.19 µM.
In the case of `C[C@@H](C[C@@]1(C2CC2)NC(=O)NC1=O)C(=O)N1CCN(c2cc(F)cc(-c3cn[nH]c3)c2)[C@@H](C)C1` [Cpd 379, 5-cyclopropyl-5-[3-[(3S)-4-[3-fluoro-5-(1H-pyrazol-4-yl)phenyl]-3-methyl-piperazin-1-yl]-2-methyl-3-oxo-propyl]imidazolidine-2,4-dione], the IC50 at human ADAMTS-5 is 0.018 µM; at human TACE it was 1.49 µM.
In the same order, the values of `CC1(CC(CC#N)C(=O)N2CCN(c3cc(Cl)cc(Cl)c3)CC2)NC(=O)NC1=O` (stereo not drawn) [compound 254, 4-[4-(3,5-dichlorophenyl)piperazin-1-yl]-3-[(4-methyl-2,5-dioxo-imidazolidin-4-yl)methyl]-4-oxo-butanenitrile] are 0.071 µM and 1 µM.
Taken in the same sequence, the figures for `Cc1ccc(C2(CCC(=O)N3CCN(c4cc(F)cc(Cl)c4)[C@@H](C)C3)NC(=O)NC2=O)cn1` (stereo partly drawn) [compound 383, 5-[3-[(3S)-4-(3-chloro-5-fluoro-phenyl)-3-methyl-piperazin-1-yl]-3-oxo-propyl]-5-(6-methyl-3-pyridyl)imidazolidine-2,4-dione] were 0.043 µM and over 4 µM.
In the same order, the values of `CC(=O)N1CC(C2(CC(C)C(=O)N3CCN(c4ccc(F)c(F)c4)CC3)NC(=O)NC2=O)C1` (stereo not drawn) [compound 248, 5-(1-acetylazetidin-3-yl)-5-[3-[4-(3,4-difluorophenyl)piperazin-1-yl]-2-methyl-3-oxo-propyl]imidazolidine-2,4-dione] are 0.049 µM and over 3.78 µM.
For `C[C@H]1CN(C(=O)CCC2(C3CC3)NC(=O)NC2=O)CCN1c1cccc2c1ccn2C` (stereo partly drawn) [compound 328, 5-cyclopropyl-5-[3-[(3S)-3-methyl-4-(1-methylindol-4-yl)piperazin-1-yl]-3-oxo-propyl]imidazolidine-2,4-dione], the results for the IC50 at human ADAMTS-5 and on human TACE were over 4 µM and over 20 µM, respectively.
Taken in the same sequence, the figures for `C[C@H]1CN(C(=O)CCC2(C3CC3)NC(=O)NC2=O)CCN1c1nccc(Cl)n1` (stereo partly drawn) [compound 284, 5-[3-[(3S)-4-(4-chloropyrimidin-2-yl)-3-methyl-piperazin-1-yl]-3-oxo-propyl]-5-cyclopropyl-imidazolidine-2,4-dione] were over 12 µM and over 20 µM.
Taken in the same sequence, the figures for `Cc1cc(N2CCN(C(=O)CCC3(C)NC(=O)NC3=O)CC2)c(F)cc1Cl` (stereo not drawn) [compound 267, 5-[3-[4-(4-chloro-2-fluoro-5-methyl-phenyl)piperazin-1-yl]-3-oxo-propyl]-5-methyl-imidazolidine-2,4-dione] were 3.08 µM and over 4 µM.
Taken in the same sequence, the figures for `Cc1ccc(C2(CCC(=O)N3CCN(c4cc(Cl)cc(Cl)c4)[C@@H](C)C3)NC(=O)NC2=O)cn1` (stereo partly drawn) [compound 384, 5-[3-[(3S)-4-(3,5-dichlorophenyl)-3-methyl-piperazin-1-yl]-3-oxo-propyl]-5-(6-methyl-3-pyridyl)imidazolidine-2,4-dione] were 0.06 µM and 2.23 µM.
Turning to `Cc1cc(N2CCN(C(=O)CC[C@@]3(C)NC(=O)NC3=O)C[C@@H]2C)cc(C)c1Cl` [compound 470, (5R)-5-[3-[(3S)-4-(4-chloro-3,5-dimethyl-phenyl)-3-methyl-piperazin-1-yl]-3-oxo-propyl]-5-methyl-imidazolidine-2,4-dione], the IC50 on human ADAMTS-5 was 0.383 µM; on human TACE, 2.93 µM.
Taken in the same sequence, the figures for `C[C@H]1CN(C(=O)CCC2(C3CC3)NC(=O)NC2=O)CCN1c1cccc(-c2ccc(Cl)nn2)c1` (stereo partly drawn) [compound 381, 5-[3-[(3S)-4-[3-(6-chloropyridazin-3-yl)phenyl]-3-methyl-piperazin-1-yl]-3-oxo-propyl]-5-cyclopropyl-imidazolidine-2,4-dione] were 1.97 µM and over 20 µM.
Take `C[C@H]1CN(C(=O)CCC2(c3cccnc3)NC(=O)NC2=O)CCN1c1ccc(Cl)c(Cl)c1` (stereo partly drawn) [compound 453, 5-[3-[(3S)-4-(3,4-dichlorophenyl)-3-methyl-piperazin-1-yl]-3-oxo-propyl]-5-(3-pyridyl)imidazolidine-2,4-dione]: the IC50 at human ADAMTS-5 turned out to be 0.036 µM; on human TACE it was 3.18 µM.
Turning to `C[C@H]1CN(C(=O)CCC2(C3CC3)NC(=O)NC2=O)CCN1c1cnc2ccn(C)c2c1` (stereo partly drawn) [compound 337, 5-cyclopropyl-5-[3-[(3S)-3-methyl-4-(1-methylpyrrolo[3,2-b]pyridin-6-yl)piperazin-1-yl]-3-oxo-propyl]imidazolidine-2,4-dione], the figures for the IC50 on human ADAMTS-5 and on human TACE were 0.764 µM and over 20 µM, respectively.

The values above are taken from patent US9926281B2 (priority 2014, dated 2018).
